Measurements as given in US12239686B2, “Immune checkpoint inhibitor combinations” (LYTIX BIOPHARMA AS, priority 2014, dated 2025).
Non-standard residues stand in square brackets, D forms with d. Residues, ends and D or L forms follow the SMILES beside them. Dip = N[C@H](C(=O)O)C(c1ccccc1)c1ccccc1

Columns and labels:
[1] = test system: murine A20 B-cell lymphoma; assay: Adoptive spleen cell transfer, A20 B-cell lymphoma model; format: in vivo, mice; settings: donors: LTX-315 1 mg intratumoural once daily 3 days, complete regression
Method: […] Balb/c mice (n=32) were each inoculated with A20 cells (5 million in 50 μL s.c.) on the abdominal surface. Once tumours had reached 20 mm^2 they were injected with LTX-315 (1 mg) injected intratumourally, once daily for 3 days, in a volume of 50 μL. Tumour size (mm^2) and body weight were subsequently monitored and a further injection of LTX-315 was given if any tumour re-growth was observed. Subsequently, mice showing complete tumour regression were sacrificed and used as donors for transfer of splenocytes while naive donor mice were used as controls. Spleens from donor mice were excised and cells isolated. Naive receiver mice were irradiated and divided into 2 groups. Group 1 received isolated splenocytes from cured mice, whereas group 2 received isolated splenocytes from naive mice. Freshly prepared cells were injected (20×106 per 100 μl) via the tail vein. Twenty four hours later receiver mice were inoculated with 5 million murine A20 B-cell lymphoma cells on the abdominal surface as described above. Tumour size and body weight were monitored until the maximum tumour burden of ˜125 mm^2 was reached, or a serious adverse events occurred (i.e. wound formation due to tumour tissue necrosis) at which point mice were sacrificed.

[2] = test system: A375 melanoma cells; assay: Live cell imaging, bright field confocal microscopy; format: cell-based, human; settings: at an IC-50 value, majority of the cells
Method: Live cell imaging with unlabeled cells-A375 cells were seeded at 10,000 cells/well in a complete media in Nunc Lab-Tec 8-wells chambered covered glass (Sigma) precoated with 25 μg/ml human fibronectin (Sigma) that were allowed to adhere overnight. Cells were washed twice with a serum-free RPMI, treated with peptide dissolved in RPMI and investigated using Bright on a Leica TCS SP5 confocal microscope, with a 63X/1.2W objective. The microscope was equipped with an incubation chamber with CO2 and temperature control.

[3] = test system: A375 cells; assay: TEM electron microscopy, ultrastructural changes; format: cell-based, human
Method: A375 cells were seeded at 1×10^5 cells per well in 6-well plates and allowed to grow for three days to optimize membrane structures in the culture, and the media was changed on the second day. Cells were washed twice in serum-free RPMI before being treated with LTX-315 dissolved in serum-free RPMI at 5, 10 and 25 μg/ml, with serum-free RPMI as a negative control. Cells were then washed with PBS twice before fixation for 24 hours in 4° C. with 4% formaldehyde and 1% gluteralaldehyde in a Hepes buffer at pH 7.8. Dehydration and post-fixation protocols included incubation in a 5% buffered tannic acid and incubation in a 1% osmium-reduced ferrocyanide. Ultrathin sections were prepared, and uranyl acetate (5%) and Reynolds's lead citrate were used for staining and contrasting. Samples were examined on a JEOL JEM-1010 transmission electron microscope, and images were taken with an Olympus Morada side-mounted TEM CCD camera (Olympus soft imaging solutions, GmbH, Germany).

[4] = test system: human A547 cells; assay: TEM, mitochondrial membrane; format: cell-based; settings: 10 μg/ml, 60 minutes
Method: FIG. 16 LTX-315 disintegrates the mitochondria membrane. TEM images of FIG. 16a: human A547 melanoma cells treated with LTX-315 (10 μg/ml) for 60 minutes compared to FIG. 16b: control cells.

[5] = test system: A375 cells; assay: Release of cytochrome-C, ELISA of supernatant; format: cell-based, human; settings: 35 μM; 5, 15, 45 min
Method: A375 cells were seeded as with HMGB1 studies, and treated with 35 μM for different time points (5, 15, 45). Supernatants were collected and concentrated as with HMGB1 studies, and samples from the supernatants were analyzed using a 4.5 hour solid form Cytochrome C-Elisa kit (R&D Systems, USA, #DCTC0) following the manufacturer's description. Shortly thereafter, a 50% diluted sample was analyzed and the optical density was determined using a microplate reader set at 450 nm, and […]. A standard curve was generated for each set of samples assayed. Samples were run in four parallels, and the cytochrome-c released into the supernatant was expressed as a fold over the level of cytochrome-c in the supernatant of untreated cells.

[6] = test system: murine CT26WT colon carcinoma; assay: Murine CT26WT colon carcinoma tumours in mice, intratumoural treatment; format: in vivo; settings: for Mean tumour size (mm^2) at day 1: prior to start of treatment
Method: The administration takes place by intra-tumoural injection of LTX-315 dissolved in sterile saline (0.9% NaCl in sterile water).
The mice were divided into five groups, 8 mice in each group. When the tumours reached the desired size of 20 mm^2 the treatment by intra tumoural injection was initiated. Group one was treated solely on day 1, Group two on day 1 and 2, Group three on day 1 and 3 and Group four on day 1, 2 and 3. All daily treatments were one single injection of 1.0 mg LTX-315 dissolved in 50 μl (20 mg/ml). Group five was treated with the 50 μl of vehicle for LTX-315 (Group 5).
Weighing and physical examination were used as health controls.

[7] = Group 1, 1 mg intratumoural day 1
[8] = Group 2, 1 mg intratumoural days 1,2
[9] = Group 3, 1 mg intratumoural days 1,3
[10] = Group 4, 1 mg intratumoural days 1,2,3

## NCCCC[C@H](NC(=O)[C@@H](NC(=O)[C@H](Cc1c[nH]c2ccccc12)NC(=O)[C@H](CCCCN)NC(=O)[C@H](CCCCN)NC(=O)[C@H](Cc1c[nH]c2ccccc12)NC(=O)[C@H](Cc1c[nH]c2ccccc12)NC(=O)[C@H](CCCCN)NC(=O)[C@@H](N)CCCCN)C(c1ccccc1)c1ccccc1)C(N)=O [LTX-315, K-K-W-W-K-K-W-Dip-K-NH2] (H-KKWWKKW[Dip]K-NH2)
[1]
  tumour growth in irradiated recipients of splenocytes from LTX-315-cured donors vs naive donors: Inhibition of tumour growth was observed
[2]
  time to cell collapse with extrusion of cytoplasmic content: 15 to 60 min
[3]; 3.5 μM
  cells with vacuolization: approximately 20%
[3]; 3.5 μM, 60 minutes
  number of necrotic cells: less than 5%
[3]; 17 μM, 60 min
  cells displaying vacuolization: 4%
  cells with necrotic morphology with loss of plasma membrane integrity: approximately 40%
[4]
  effect on the mitochondrial membrane (TEM): disintegration of the mitochondrial membrane
[5]
  cytochrome-C in the supernatant vs untreated control cells: three times more cytochrome-C in the supernatant compared to untreated control cells
[6]; Group 1, 1 mg day 1
  Relapse of Tumour: 20%
[6]; Group 1, 1 mg day 1, n=8
  Free of Tumour at end of Follow-Up: 50%
[6]; [7]
  Mean tumour size (mm^2) on day 6: 4.343 ± 2.295 mm^2
  Mean tumour size (mm^2) on day 10: 7.171 ± 4.035 mm^2
  Mean tumour size (mm^2) on day 17: 3.712 ± 3.712 mm^2
  Mean tumour size (mm^2) at day 1: 22.69 ± 0.4070 mm^2
[6]; Group 2, 1 mg days 1,2
  Relapse of Tumour: 71%
[6]; Group 2, 1 mg days 1,2, n=8
  Free of Tumour at end of Follow-Up: 25%
[6]; [8]
  Mean tumour size (mm^2) on day 6: 1.458 ± 1.458 mm^2
  Mean tumour size (mm^2) on day 10: 5.058 ± 4.014 mm^2
  Mean tumour size (mm^2) on day 17: 6.644 ± 3.430 mm^2
  Mean tumour size (mm^2) at day 1: 22.90 ± 1.155 mm^2
[6]; Group 3, 1 mg days 1,3
  Relapse of Tumour: 29%
[6]; Group 3, 1 mg days 1,3, n=8
  Free of Tumour at end of Follow-Up: 62.5%
[6]; [9]
  Mean tumour size (mm^2) on day 6: 2.983 ± 2.983 mm^2
  Mean tumour size (mm^2) on day 10: 10.85 ± 7.553 mm^2
  Mean tumour size (mm^2) on day 17: 0.00 ± 0.00 mm^2
  Mean tumour size (mm^2) at day 1: 21.43 ± 1.141 mm^2
[6]; Group 4, 1 mg days 1,2,3, n=8
  Free of Tumour at end of Follow-Up: 62.5%
  Tumour Response: complete response: 100%
[6]; [10]
  Mean tumour size (mm^2) on day 6: 0.00 ± 0.00 mm^2
  Mean tumour size (mm^2) on day 10: 0.00 ± 0.00 mm^2
  Mean tumour size (mm^2) on day 17: 1.308 ± 1.308 mm^2
  Mean tumour size (mm^2) at day 1: 24.09 ± 1.653 mm^2
[6]; all four LTX-315 groups together
  treated animals observed with a complete tumour response: 27 of the 32
[6]; all treated groups
  toxic or other adverse effects: No toxic or other adverse effects besides local necrotic tissue and wound formation were observed
